{"source": "patent US6258790A", "about": "“Antisense modulation of integrin α4 expression” (Isis Pharmaceuticals, Inc., priority 1999, dated 2001)", "key": {"[1]": {"test_system": "Mouse experimental autoimmune encephalomyelitis (EAE)", "assay": "Mouse experimental autoimmune encephalomyelitis (EAE) model for multiple sclerosis", "format": "in vivo, mouse (CSJLF-1)", "details": "for Peak Severity: score 0 to 5; for effect on EAE given therapeutically: therapeutic"}, "[2]": {"test_system": "human integrin α4 mRNA", "assay": "Integrin α4 mRNA levels in A375 melanoma cells by real-time quantitative PCR", "format": "cell-based", "details": "24 hours, electroporation", "protocol": "Quantitation of integrin α4 mRNA levels was performed by real-time quantitative PCR using the ABI PRISM™ 7700 Sequence Detection System (PE-Applied Biosystems, Foster City, Calif.) according to manufacturer's instructions. This is a closed-tube, non-gel-based, fluorescence detection system which allows high-throughput quantitation of polymerase chain reaction (PCR) products in real-time. As opposed to standard PCR, in which amplification products are quantitated after the PCR is completed, products in real-time quantitative PCR are quantitated as they accumulate. This is accomplished by including in the PCR reaction an oligonucleotide probe that anneals specifically between the forward and reverse PCR primers, and contains two fluorescent dyes. A reporter dye (e.g., JOE or FAM, obtained from either Operon Technologies Inc., Alameda, Calif. or PE-Applied Biosystems, Foster City, Calif.) is attached to the 5' end of the probe and a quencher dye (e.g., TAMRA, obtained from either Operon Technologies Inc., Alameda, Calif. or PE-Applied Biosystems, Foster City, Calif.) is attached to the 3' end of the probe. When the probe and dyes are intact, reporter dye emission is quenched by the proximity of the 3' quencher dye. During amplification, annealing of the probe to the target sequence creates a substrate that can be cleaved by the 5'-exonuclease activity of Taq polymerase. […] With each cycle, additional reporter dye molecules are cleaved from their respective probes, and the fluorescence intensity is monitored at regular intervals by laser optics built into the ABI PRISM™ 7700 Sequence Detection System. In each assay, a series of parallel reactions containing serial dilutions of mRNA from untreated control samples generates a standard curve that is used to quantitate the percent inhibition after antisense oligonucleotide treatment of test samples.\nPCR reagents were obtained from PE-Applied Biosystems, Foster City, Calif. RT-PCR reactions were carried out by adding 20 μL PCR cocktail (1×TAQMANT buffer A, 5.5 mM MgCl2, 300 μM each of dATP, dCTP and dGTP, 600 μM of dUTP, 400 nM each of forward primer and reverse primer (or 100 nM in the case of G3PDH), 100 nM probe, 20 Units RNAse inhibitor, 1.25 Units AMPLITAQ GOLD™, and 12.5 Units MuLV reverse transcriptase) to 5 μL (100 ng) total mRNA solution, purified using the RNEasy™ kit (Qiagen, Valencia Calif.). The RT reaction was carried out by incubation for 30 minutes at 48° C. Following a 10 minute incubation at 95° C. to activate the AMPLITAQ GOLD™, 40 cycles of a two-step PCR protocol were carried out: 95° C. for 15 seconds (denaturation) followed by 60° C. for 1.5 minutes (annealing/extension). Integrin α4 probes and primers were designed to hybridize to the human integrin α4 sequence, using published sequence information (GenBank accession number L12002), incorporated herein as SEQ ID NO:1).\nFor integrin α4 the PCR primers were: forward primer: GACACGCTGCGCCTCAT (SEQ ID NO: 94, hybridizes at position 319-335 of Genbank accession no. L12002) reverse primer: […] (SEQ ID NO: 95, hybridizes at position 391-412 of Genbank accession no. L12002) and the PCR probe was: FAM-[…]-TAMRA (probe is SEQ ID NO: 96; hybridizes at position 361-382 of Genbank accession no. L12002) where FAM (PE-Applied Biosystems, Foster City, Calif.) is the fluorescent reporter dye) and TAMRA (PE-Applied Biosystems, Foster City, Calif.) is the quencher dye. […]"}, "[3]": {"details": "EAE Experiment 1, 1 mg/kg daily SC"}, "[4]": {"details": "EAE Experiment 1, 5 mg/kg daily SC"}, "[5]": {"details": "EAE Experiment 1, 10 mg/kg daily SC"}, "[6]": {"details": "EAE Experiment 1, 20 mg/kg daily SC"}, "[7]": {"details": "EAE Experiment 3, 1 mg/kg 3× weekly"}, "[8]": {"details": "EAE Experiment 4, 0.01 mg/kg, prophylactic (P)"}, "[9]": {"details": "EAE Experiment 4, 0.1 mg/kg SC, prophylactic (P)"}, "[10]": {"details": "EAE Experiment 4, 1.0 mg/kg SC, prophylactic (P)"}, "[11]": {"details": "EAE Experiment 4, 1 mg/kg, therapeutic (T), day 18 to 31"}, "[12]": {"details": "EAE Experiment 4, 2.0 mg/kg SC, prophylactic (P)"}, "[13]": {"details": "EAE Experiment 5, 0.01 mg/kg, prophylactic (P)"}, "[14]": {"details": "EAE Experiment 5, 0.1 mg/kg SC, prophylactic (P)"}, "[15]": {"details": "EAE Experiment 5, 1.0 mg/kg SC, prophylactic (P)"}, "[16]": {"details": "EAE Experiment 5, 1 mg/kg, therapeutic (T), day 11 to 27"}, "[17]": {"details": "EAE Experiment 5, 2.0 mg/kg SC, prophylactic (P)"}}}
{"substance": "17044 (CCGCAGCCATGCGCTCTTGG; phosphorothioate, 2'-MOE/deoxy, further chemistry not given here) [compound 17044]", "values": [{"measurement": "effect on EAE", "setting": "[1]; EAE Experiment 1", "value": "reduced disease severity or delayed disease onset"}, {"measurement": "Days to Onset", "setting": "[1]; [3]", "value": 17.25, "unit": "days"}, {"measurement": "Disease Incidence", "setting": "[1]; [3]", "value": "4/7"}, {"measurement": "Peak Severity", "setting": "[1]; [3]", "value": 0.29}, {"measurement": "Days to Onset", "setting": "[1]; [4]", "value": 17, "unit": "days"}, {"measurement": "Disease Incidence", "setting": "[1]; [4]", "value": "6/7"}, {"measurement": "Peak Severity", "setting": "[1]; [4]", "value": 1.86}, {"measurement": "Days to Onset", "setting": "[1]; [5]", "value": 12.75, "unit": "days"}, {"measurement": "Disease Incidence", "setting": "[1]; [5]", "value": "4/7"}, {"measurement": "Peak Severity", "setting": "[1]; [5]", "value": 2.0}, {"measurement": "Days to Onset", "setting": "[1]; [6]", "value": 15, "unit": "days"}, {"measurement": "Disease Incidence", "setting": "[1]; [6]", "value": "5/7"}, {"measurement": "Peak Severity", "setting": "[1]; [6]", "value": 1.43}, {"measurement": "effect on EAE", "setting": "[1]; EAE Experiment 2", "value": "reduced disease severity and delayed disease onset at all concentrations"}, {"measurement": "Days to Onset", "setting": "[1]; EAE Experiment 2, 0.3 mg/kg SC", "value": 16.57, "unit": "days"}, {"measurement": "Disease Incidence", "setting": "[1]; EAE Experiment 2, 0.3 mg/kg SC", "value": "7/7"}, {"measurement": "Peak Severity", "setting": "[1]; EAE Experiment 2, 0.3 mg/kg SC", "value": 2.14}, {"measurement": "Days to Onset", "setting": "[1]; EAE Experiment 2, 1 mg/kg IV", "value": 17.2, "unit": "days"}, {"measurement": "Disease Incidence", "setting": "[1]; EAE Experiment 2, 1 mg/kg IV", "value": "5/7"}, {"measurement": "Peak Severity", "setting": "[1]; EAE Experiment 2, 1 mg/kg IV", "value": 1.42}, {"measurement": "Days to Onset", "setting": "[1]; EAE Experiment 2, 1 mg/kg SC", "value": 18.25, "unit": "days"}, {"measurement": "Disease Incidence", "setting": "[1]; EAE Experiment 2, 1 mg/kg SC", "value": "4/7"}, {"measurement": "Peak Severity", "setting": "[1]; EAE Experiment 2, 1 mg/kg SC", "value": 1.0}, {"measurement": "Days to Onset", "setting": "[1]; EAE Experiment 2, 3 mg/kg SC", "value": 16.4, "unit": "days"}, {"measurement": "Disease Incidence", "setting": "[1]; EAE Experiment 2, 3 mg/kg SC", "value": "7/7"}, {"measurement": "Peak Severity", "setting": "[1]; EAE Experiment 2, 3 mg/kg SC", "value": 2.29}, {"measurement": "effect on EAE", "setting": "[1]; EAE Experiment 3", "value": "reduced disease severity or delayed disease onset"}, {"measurement": "Days to Onset", "setting": "[1]; EAE Experiment 3, 0.5 mg/kg SC", "value": 21.4, "unit": "days"}, {"measurement": "Disease Incidence", "setting": "[1]; EAE Experiment 3, 0.5 mg/kg SC", "value": "5/6"}, {"measurement": "Peak Severity", "setting": "[1]; EAE Experiment 3, 0.5 mg/kg SC", "value": 1.5}, {"measurement": "Days to Onset", "setting": "[1]; [7]", "value": 20.3, "unit": "days"}, {"measurement": "Disease Incidence", "setting": "[1]; [7]", "value": "6/7"}, {"measurement": "Peak Severity", "setting": "[1]; [7]", "value": 1.0}, {"measurement": "Days to Onset", "setting": "[1]; EAE Experiment 3, 1.0 mg/kg SC", "value": 19.25, "unit": "days"}, {"measurement": "Disease Incidence", "setting": "[1]; EAE Experiment 3, 1.0 mg/kg SC", "value": "4/5"}, {"measurement": "Peak Severity", "setting": "[1]; EAE Experiment 3, 1.0 mg/kg SC", "value": 1.5}, {"measurement": "Days to Onset", "setting": "[1]; EAE Experiment 3, 1.5 mg/kg SC", "value": 17.5, "unit": "days"}, {"measurement": "Disease Incidence", "setting": "[1]; EAE Experiment 3, 1.5 mg/kg SC", "value": "4/7"}, {"measurement": "Peak Severity", "setting": "[1]; EAE Experiment 3, 1.5 mg/kg SC", "value": 1.5}, {"measurement": "Days to Onset", "setting": "[1]; EAE Experiment 3, 2 mg/kg SC", "value": 20, "unit": "days"}, {"measurement": "Disease Incidence", "setting": "[1]; EAE Experiment 3, 2 mg/kg SC", "value": "2/6"}, {"measurement": "Peak Severity", "setting": "[1]; EAE Experiment 3, 2 mg/kg SC", "value": 0.83}, {"measurement": "Days to Onset", "setting": "[1]; [8]", "value": 13.83, "unit": "days"}, {"measurement": "Disease Incidence", "setting": "[1]; [8]", "value": "6/7"}, {"measurement": "Peak Severity", "setting": "[1]; [8]", "value": 1.86}, {"measurement": "Days to Onset", "setting": "[1]; [9]", "value": 16.29, "unit": "days"}, {"measurement": "Disease Incidence", "setting": "[1]; [9]", "value": "7/7"}, {"measurement": "Peak Severity", "setting": "[1]; [9]", "value": 1.57}, {"measurement": "Days to Onset", "setting": "[1]; [10]", "value": 15, "unit": "days"}, {"measurement": "Disease Incidence", "setting": "[1]; [10]", "value": "5/5"}, {"measurement": "Peak Severity", "setting": "[1]; [10]", "value": 2.2}, {"measurement": "Days to Onset", "setting": "[1]; [11]", "value": 13.3, "unit": "days"}, {"measurement": "Disease Incidence", "setting": "[1]; [11]", "value": "6/6"}, {"measurement": "Peak Severity", "setting": "[1]; [11]", "value": 1.83}, {"measurement": "Days to Onset", "setting": "[1]; [12]", "value": 16.71, "unit": "days"}, {"measurement": "Disease Incidence", "setting": "[1]; [12]", "value": "7/7"}, {"measurement": "Peak Severity", "setting": "[1]; [12]", "value": 2.29}, {"measurement": "effect on EAE given therapeutically", "setting": "[1]; EAE Experiment 4", "value": "reduced disease severity when given therapeutically"}, {"measurement": "Days to Onset", "setting": "[1]; [13]", "value": 11.57, "unit": "days"}, {"measurement": "Disease Incidence", "setting": "[1]; [13]", "value": "7/7"}, {"measurement": "Peak Severity", "setting": "[1]; [13]", "value": 1.57}, {"measurement": "Days to Onset", "setting": "[1]; [14]", "value": 12.67, "unit": "days"}, {"measurement": "Disease Incidence", "setting": "[1]; [14]", "value": "6/7"}, {"measurement": "Peak Severity", "setting": "[1]; [14]", "value": 1.14}, {"measurement": "Days to Onset", "setting": "[1]; [15]", "value": 11.33, "unit": "days"}, {"measurement": "Disease Incidence", "setting": "[1]; [15]", "value": "6/7"}, {"measurement": "Peak Severity", "setting": "[1]; [15]", "value": 1.86}, {"measurement": "Days to Onset", "setting": "[1]; [16]", "value": 12.71, "unit": "days"}, {"measurement": "Disease Incidence", "setting": "[1]; [16]", "value": "7/7"}, {"measurement": "Peak Severity", "setting": "[1]; [16]", "value": 1.42}, {"measurement": "Days to Onset", "setting": "[1]; [17]", "value": 12, "unit": "days"}, {"measurement": "Disease Incidence", "setting": "[1]; [17]", "value": "7/7"}, {"measurement": "Peak Severity", "setting": "[1]; [17]", "value": 1.86}, {"measurement": "effect on EAE given therapeutically", "setting": "[1]; EAE Experiment 5", "value": "reduced disease severity when given therapeutically"}]}
{"substance": "107248 (antisense CTGAGTCTGTTTTCCATTCT; chemistry not given here) [compound 107248]", "values": [{"measurement": "reduction of integrin α4 mRNA levels compared to control", "setting": "[2]; 0.3 μM", "value": "approximately 23%"}, {"measurement": "reduction of integrin α4 mRNA levels compared to control", "setting": "[2]; 1 μM", "value": "~38", "unit": "%"}, {"measurement": "reduction of integrin α4 mRNA levels compared to control", "setting": "[2]; 3 μM", "value": "~70", "unit": "%"}, {"measurement": "reduction of integrin α4 mRNA levels compared to control", "setting": "[2]; 10 μM", "value": "~80", "unit": "%"}, {"measurement": "reduction of integrin α4 mRNA levels compared to control", "setting": "[2]; 30 μM", "value": "~85", "unit": "%"}]}
